Values joined by “and” are separate entries in the source; they are usually repeats but may differ in a detail not shown here. Equal entries are not always repeated. “Also recorded” adds a separate entry of the source. Blank lines part the entries; values can stand above or below the molecule they belong to.
Tests used:
[1] = tested on: pre-miR-155's C-bulge (5′UCG/3′A_U); assay: MST binding to pre-miR-155 C bulge; set-up: species or system human; settings: microscale thermophoresis
Protocol: (§1) Microscale thermophoresis study of binding. Binding constants were measured by MST using premium capillaries (Nanotemper) using serial dilations of compound from 50 μM to 1 nM in 1:2 dilutions. RNA-Cy5-155-A (20 nM) or Cy5-155-AU (20 nM), Cy5-155-C(20 nM), and Cy5-155-GC (20 nM) were annealed in 2×DNA buffer by heating at 70° C. with cooling to room temperature on the bench. Then the 2× compound and 2× RNA solutions were mixed together in a 1:1 ratio and allowed to equilibrate at room temperature for 10 min. Then, the capillaries were loaded and run on a […] under previously described conditions.^14 MST power was set to 40% and the LED power was set to 3%.

base paired control RNA = assay: MST binding to base paired control RNA (A bulge mutated to AU pair); settings: microscale thermophoresis
Protocol: as §1

GC paired control = assay: MST binding to GC paired control; settings: microscale thermophoresis
Protocol: as §1

pre-miR-155 [2] = assay: RT-qPCR of pre-miR-155 levels in MDA-MB-231 cells; format: cell-based, human; settings: MDA-MB-231 cells
Protocol: (§2) Tissue Culture. MDA-MB-231 cells were obtained from ATCC (HTB-26) and cultured in RPMI medium with […] & 25 mM HEPES (Corning) supplemented with 10% FBS (sigma). MCF-10a cells were obtained from ATCC(CRL-10317) and cultured in DMEM/F12 50/50 with glutamine and 15 mM HEPES(Corning) containing 20% FBS(Sigma), 1×Antibiotic-Antimycotic(Corning), 20 ng/mL of human epidermal growth factor(Pepro Tech Inc.), 100 μg/mL of insulin and […] of hydrocortisone (Pfizer &Bauer). HUVECs were cultured in EGM (Lonza) made using the EGM-2 bullet kit (Lonza) per the manufacturers protocol.
(§3) RT-qPCR analysis for Mature, Primary and Precursor miRNAs and mRNA levels. After compound treatment for the indicated time (MDA-MB-231 48 h and HUVECs 24 h), total RNA was extracted using the Zymo Quick-RNA mini prep kit according to the manufacturers protocol. Reverse Transcription (RT) for microRNAs and pri- and pre-miR-155 were done on 200 ng of RNA using the miScript II RT kit (Qiagen) according to the manufacturer's protocol. The mRNAs were done using QScript (Quanta Bio) on 200 ng of total RNA according to the manufacturer's protocol. RT-qPCR was done as mentioned above. The obtained data was analyzed by using the ΔΔCt method as described previously. For the washout experiment, MDA-MB-231 cells were treated with 3 for 48 h. Then the media was changed with fresh growth medium without compound and the cells incubated for 12, 24 and 36 h with RNA harvested and pre-miR-155 levels analyzed as described above.
(§4) RT-qPCR analysis for Mature, Primary and Precursor miRNAs and mRNA levels part. Relative RNA expression was determined by using ΔΔCt method with 18S rRNA as an internal control. Normalized fold change was calculated with the equation as below: […]

[3] = target: pre-miR-155's 5′GAU/3′C_A bulge; assay: Microscale thermophoresis (MST) binding to pre-miR-155 A bulge; set-up: species or system human
Protocol: as §1

miR-155 [4] = assay: RT-qPCR of mature miR-155 levels in MDA-MB-231 cells; format: cell-based, human; settings: 48 h
Protocol: as §2, §3, §4

3×3 ILL = assay: 2DCS with HiT-StARTS fitness ranking of bound RNA motifs; format: binding
Protocol: 2DCS: Primary Screening. The microarrays were constructed as previously described.^10 Microarrays were by coating glass plates with 25 mL of molten 1% agarose and allowing it to set for 2 h. After setting, the plates were pinned with compound using a Biomek® NX robotic pintool, pinning 100 nL of each compound. The array was dried in a fume hood overnight and then washed in 1× FB supplemented with 0.1% (v/v) Tween-20 and then Nano pure water two times each followed by air drying on the bench top. Once dried, 200 pmol of radiolabeled 3×3 ILL was added to 0.5 mL of 1× FB and folded by heating to 95° C. for 1 min and then cooling to room temperature slowly on the benchtop. Magnesium chloride was added after cooling. Once cooled the solution was brought to a volume of 2.5 mL with 1× FB. The microarrays were pre-hybridized with 1× HB for 5 min and the excess buffer was removed by touching the edge with a Kimwipe. The arrays were then Hybridized with the RNA for 30 min, spreading the solution evenly over the surface with parafilm. After hybridization, the array was washed four times with 1× HB followed by air drying and imaging by autoradiography. Hits were identified as signals with an intensity greater than 3-fold over background radiation on the array. Positive control compounds Mitoxantrone was present on all arrays.
2DCS: tRNA Counter Screen. To remove non-specific RNA binders hits identified above were subjected to competitive screening with cold yeast tRNA. The assay was carried out as previously described.^10 Briefly, arrays were constructed on Inkjet Superfrost microscope slides (Fisher) by applying 2 mL of molten 1% agarose onto each slide and curing them for 2 h. Once cured, 200 nL of each compound was spotted onto each plate and the plates dried overnight as previously described. After drying, the slides were washed three times for 5 min each with nano pure water and dried under a stream of compressed air. The slides were then pre-hybridized with 1× HB for 5 min, and then incubated with 100 pmol of folded hot RNA and tRNA (1× relative to the total moles of compound spotted) in 0.4 mL of 1× FB for 30 min. The slides were then washed with 1× HB five times, air dried, and imaged to identify library specific binders. […]
In these equations n1 is the observed reads for all selected RNAs in the RNA-seq data; n2 is the total reads observed for the starting library; p1 is the proportion of the reads for a particular sequence to the total reads in the selected library; p2 is the proportion of the reads for a particular sequence to the total reads of the starting library. We can then use Zobs to rank each sequence, and therefore each RNA motif, by its affinity or fitness which is calculated according to equation (5) below described previously:^10 […]

pre-miR-155 [5] = assay: Chem-CLIP and competitive Chem-CLIP of pre-miR-155 in MDA-MB-231 cells; format: cell-based, human; settings: for enrichment of pre-miR-155 in pulled down fractions (Chem-CLIP): 1×10^−7 M (100 nM)
Protocol: Cellular Chem-CLIP and Competitive-Chem-CLIP of pre-miR-155. MDA-MB-231 cells at 80% confluency in 100 mm dish were treated with Chem-CLIP probe at the indicated concentration overnight. Then cells were washed with DPBS and harvested by scrapping. Total RNA was extracted by using the miRNeasy mini kit (Qiagen) according to the manufacture's protocol. Then, 50 g of total RNA was treated to 150 L of Dynabeads MyOne Streptavidin C1 (Invitrogen) slurry in 500 L of 1×DNA buffer (8.0 mM Na2PO4, 185 mM NaCl, pH=7.0) and shaked for 6 h. The beads then captured on a Magnetic rack and washed with DPBS for 4 times. The bound RNA was then cleaved from beads in 150 μL of 95% formamide with 10 mM EDTA at 95° C. for 30 min. Released RNA was then cleaned up by Zymo Quick-RNA MiniPrep kit per the manufacture's protocol. RT-qPCR was carried out on pre-miR-155 as previously described above by using 10 ng of input cDNA from before and after pulldown RNA samples. Enrichment of pre-miR-155 was calculated as previously reported^15. Competitive Chem-CLIP was completed by pre-treating MDA-MB-231 cells with compound B for 2 h followed by dosing of Chem-CLIP at 100 nM overnight. Sample preparation and data analysis were performed as for Chem-CLIP.

miR-155 [6] = assay: RT-qPCR of miR-155 levels in HUVECs; format: cell-based, human
Protocol: as §2, §3

pre-miR-155 [7] = assay: RT-qPCR of pre-miR-155 levels in HUVECs; format: cell-based, human
Protocol: as §2, §3

pre-miR-155 [8] = assay: In vitro RNase L cleavage assay of pre-miR-155; format: biochemical, human
Protocol: pre-miR-155 was then incubated with compound 3 in vitro in an RNase L cleavage assay.
PCR amplification and transcription of DNA templates. PCR amplification of DNA templates of pre-miR-155 and mutants were performed using the pre-miR-155 forward primer containing T7 RNA polymerase promoter and a reverse primer common to both the pre-miR-155 Wild type and Mutant templates. The sequence of Oligonucleotides used in this study can be found in Table 4. PCR amplification was carried out in 350 μL of 1× PCR buffer (10 mM Tris-HCl, pH 9.0, 50 mM KCl, and 0.1% (v/v) Triton X-100), 0.33 mM dNTPs, 4.25 mM MgCl2, 2 μM of each primer(100 μM), and 1.7 μL of Taq DNA polymerase. Thermocycling was done for 35 cycles at 95° C. for 30 s, 55° C. for 30 s, and 72° C. for 60 s. PCR products were confirmed by a 2.5% Agarose Gel stained with ethidium bromide before in vitro transcription. In vitro RNA transcription for the target RNAs were carried out using house made reagents as described previously.^11

- Kd [3]: 552 ± 120 nM
SMILES: CCCNC(=O)CCc1c(C)n(-c2c(C(C)C)cccc2C(C)C)c[n+]1-c1c(C(C)C)cccc1C(C)C [Compound 2]
- binding to C bulge [1]: Neither compound (1 or 2) had any affinity; also recorded: Neither molecule showed significant binding
- binding to base paired control RNA (base paired control RNA): no affinity; also recorded: ablated binding; also recorded: Neither molecule showed significant binding
- binding to GC paired control (GC paired control): Neither compound (1 or 2) had any affinity
- effect on pre-miR-155 levels (pre-miR-155 [2]): no effect
- effect on miR-155 levels / miR-155 biogenesis (miR-155 [4]): no effect

SMILES: CCCCCCCCCCCc1c(CCCCCCCCCCC)[n+](C)c(CCCO)n1C [Compound C7]
- Fitness Score of the next motif (3×3 ILL): 46%
- fitness score of highest affinity interaction, alternating (AU)(UA) pairs (3×3 ILL): 100%

SMILES: Cc1c(CCC(=O)NCCCC[C@H](NC(=O)CCCc2ccc(N(CCCl)CCCl)cc2)C(=O)NCCNC(=O)CCCCC2SCC3NC(=O)NC32)[n+](-c2c(C(C)C)cccc2C(C)C)cn1-c1c(C(C)C)cccc1C(C)C (stereo partly drawn) [Compound 6]
- enrichment of pre-miR-155 in pulled down fractions (Chem-CLIP) (pre-miR-155 [5]): 4 fold and 7 fold

- IC50 (pre-miR-155 [5]; Homo sapiens, 6 held constant at 1×10^−7 M, read-out: IC50 of reduction of pre-miR-155 enrichment (C-Chem-CLIP)): 100 nM
- Kd [3]: 490 ± 122 nM
SMILES: CCCCCCCCCCCc1c(CCCCCCCCCCC)[n+](-c2c(C(C)C)cccc2C(C)C)cn1-c1c(C(C)C)cccc1C(C)C [Compound 1]
- binding to C bulge [1]: Neither compound (1 or 2) had any affinity; also recorded: Neither molecule showed significant binding
- binding to base paired control RNA (base paired control RNA): no binding; also recorded: Neither molecule showed significant binding
- binding to GC paired control (GC paired control): Neither compound (1 or 2) had any affinity
- effect on miR-155 levels (miR-155 [6]): no effect
- effect on pre-miR-155 levels (pre-miR-155 [7]): no effect
- competition of cleavage by 3 (pre-miR-155 [7]; 3 at 1×10^−8 M, 1 at 1×10^−7 and 1×10^−6 M): dose dependently reduced cleavage
- concentration of 1 giving complete ablation of cleavage by 3 (pre-miR-155 [2]; co-treated with 3 at 1×10^−7 M, mature, pre- and pri-miR-155): 1000 nM
- effect on miR-155 levels / miR-155 biogenesis (miR-155 [4]): no effect; also recorded: unable to inhibit

SMILES: CCOC(=O)C1=C(Nc2ccccc2)S/C(=C\c2ccc(OCCOCCOCCOCCNC(C)=O)c(O)c2)C1=O [Compound 4]
- cleavage of pre-miR-155 (pre-miR-155 [8]): no significant cleavage; also recorded: unable to cleave
- effect on miR-155 levels / miR-155 biogenesis (miR-155 [4]): no effect; also recorded: does not affect

SMILES: CC(=O)NCCCC[C@H](NC(=O)CCCc1ccc(N(CCCl)CCCl)cc1)C(=O)NCCNC(=O)CCCCC1SCC2NC(=O)NC21 (stereo partly drawn) [Compound 7]
- enrichment of pre-miR-155 in pulled down fractions (Chem-CLIP) (pre-miR-155 [5]): no enrichment; also recorded: unable to pull down

SMILES: Cc1cc(C)c(-n2c[n+](-c3c(C)cc(C)cc3C)c3c2C[C@@]2(C)[C@@H](CC[C@@H]4[C@@H]2CC[C@]2(C)[C@@H]([C@H](C)CCCC(C)C)CC[C@@H]42)C3)c(C)c1 [Compound C11]
- Fitness Score of the next motif (3×3 ILL): 56%
- fitness score of highest affinity interaction, alternating (AU)(UA) pairs (3×3 ILL): 100%

— patent US20250339542A1, “CONVERSION OF A BIOLOGICALLY SILENT MIRNA BINDING SMALL MOLECULE TO AN MIRNA DEGRADER” (University of Florida Research Foundation, Incorporated, priority 2020, published 2025)
